In patent US10604509B2, “Nrf2 regulators” (GlaxoSmithKline Intellectual Property Development Limited, priority 2015, dated 2020):
Counter-ions that a name gives are not always drawn.

System: NQO1 specific enzyme activity in BEAS-2B cells
Assay: BEAS-2B NQO1 MTT assay
Assay type: cell-based
Settings: Homo sapiens, BEAS-2B, 48 h, BEAS-2B cells, 48 hours with compound, MTT readout; read-out: EC50 of NQO1 specific activity induction
Summary of the method: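 NQO1 specific activity, an NRF2 activation marker, read kinetically as absorbance change at 570 nm for 30 min after MTT cocktail addition to crude lysates of BEAS-2B cells exposed 48 h to compound. Three-parameter fit of Delta OD/min against log concentration gives EC50; lysate portion used for Cell Titer Glo.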

Row | SMILES | EC50 [nM]
1 | Cc1ccc([C@@H](CC(=O)O)c2ccc3c(nnn3C)c2C)cc1CN1Cc2ncccc2OC(C)(C)C1 [Example 169, (R)-3-(1,4-Dimethyl-1H-benzo[d][1,2,3]triazol-5-yl)-3-(3-((2,2-dimethyl-2,3-dihydropyrido[2,3-f][1,4]oxazepin-4(5H)-yl)methyl)-4-methylphenyl)propanoic acid, 0.5 Formic acid salt] | 10 to 100
2 | Cc1ccc(C(CC(=O)O)c2ccc3c(nnn3C)c2C)cc1CN1Cc2ccccc2OC2(CCC2)C1 (stereo not shown) [Example 244, 3-(3-((3H-Spiro[benzo[f][1,4]oxazepine-2,1′-cyclobutan]-4(5H)-yl)methyl)-4-methylphenyl)-3-(1,4-dimethyl-1H-benzo[d][1,2,3]triazol-5-yl)propanoic Acid] | 10 to 100
3 | Cc1ccc(C(CC(=O)O)c2ccc3c(nnn3C)c2C)cc1CN1CCOc2ccccc2C1 (stereo not shown) [Example 1, 3-(3-((2,3-Dihydrobenzo[f][1,4]oxazepin-4(5H)-yl)methyl)-4-methylphenyl)-3-(1,4-dimethyl-1H-benzo[d][1,2,3]triazol-5-yl)propanoic Acid, Trifluoroacetic Acid Salt] | 1000 to 10000
4 | Cc1ccc2c(c1)CN(Cc1cc([C@H](CC(=O)O)c3ccc4c(nnn4C)c3C)ccc1C)CC(C)(C)O2 [Example 176, (S)-3-(1,4-Dimethyl-1H-benzo[d][1,2,3]triazol-5-yl)-3-(4-methyl-3-((2,2,7-trimethyl-2,3-dihydrobenzo[f][1,4]oxazepin-4(5H)-yl)methyl)phenyl) propanoic acid] | 10 to 100
5 | Cc1c(C(CC(=O)O)c2ccc(Cl)c(CN3Cc4ncccc4OC(C)(C)C3)c2)ccc2c1nnn2C (single isomer, unassigned; isomer 1) [Example 262] | 10 to 100
6 | CCC1c2cccn2CCN1Cc1cc(C(CC(=O)O)c2ccc3c(nnn3C)c2C)ccc1C (stereo not shown) [Example 19, 3-(1,4-dimethyl-1H-benzo[d][1,2,3]triazol-5-yl)-3-(3-((1-ethyl-3,4-dihdyropyrrolo[1,2-a]pyrazin-2(1H)-yl)methyl)-4-methylphenyl)propanoic acid, formic acid salt] | 1000 to 10000
7 | CCOC(=O)C(C)(C)[C@@H](c1ccc(C)c(CN2Cc3cnccc3O[C@H](CC)C2)c1)c1ccc2c(nnn2C)c1C [Example 257, (S)-ethyl 3-(1,4-dimethyl-1H-benzo[d][1,2,3]triazol-5-yl)-3-(3-(((R)-2-ethyl-2,3-dihydropyrido[3,4-f][1,4]oxazepin-4(5H)-yl)methyl)-4-methylphenyl)-2,2-dimethylpropanoate] | 100 to 1000
8 | CC[C@@H]1CN(Cc2cc([C@@H](CC(=O)O)c3ccc4c(nnn4C)c3C)ccc2C)Cc2ccccc2O1 [Example 51, (R)-3-(1,4-Dimethyl-1H-benzo[d][1,2,3]triazol-5-yl)-3-(3-(((R)-2-ethyl-2,3-dihdyrobenzo[f][1,4]oxazepin-4(5H)-yl)methyl)-4-methylphenyl)propanoic acid, formic acid salt] | 100 to 1000
9 | Cc1ccc(C(CC(=O)O)c2ccc3c(nnn3C)c2C)cc1Cn1ccnc1CC1CCCCCC1 (stereo not shown) [Example 146, 3-(3-((2-(Cycloheptylmethyl)-1H-imidazol-1-yl)methyl)-4-methylphenyl)-3-(1,4-dimethyl-1H-benzo[d][1,2,3]triazol-5-yl)propanoic acid, formic acid salt] | 10 to 100
10 | CC[C@@H]1CN(Cc2cc([C@@H](c3ccc4c(nnn4C)c3C)C(C)(C)C(=O)O)ccc2C)Cc2ccccc2O1 [Example 26, (S)-3-(1,4-Dimethyl-1H-benzo[d][1,2,3]triazol-5-yl)-3-(3-(((R)-2-ethyl-2,3-dihydrobenzo[f][1,4]oxa-zepin-4(5H)-yl)methyl)-4-methylphenyl)-2,2-dimethylpropanoic acid, trifluoroacetic acid salt] | 1 to 10
11 | CCn1nnc2c(F)c([C@H](CC(=O)O)c3ccc(C)c(CN4Cc5ccccc5OC(C)(C)C4)c3)ccc21 [Example 65, (R)-3-(3-((2,2-Dimethyl-2,3-dihydrobenzo[f][1,4]oxazepin-4(5H)-yl)methyl)-4-methylphenyl)-3-(1-ethyl-4-fluoro-1H-benzo[d][1,2,3]triazol-5-yl)propanoic Acid, Hydrochloride] | 10 to 100
12 | CC[C@@H]1CN(Cc2cc([C@H](CC(=O)O)c3ccc4c(nnn4C)c3C)ccc2C)Cc2cnccc2O1 [Example 50, (S)-3-(1,4-Dimethyl-1H-benzo[d][1,2,3]triazol-5-yl)-3-(3-(((R)-2-ethyl-2,3-dihydropyrido[3,4-f][1,4]oxazepin-4(5H)-yl)methyl)-4-methylphenyl)propanoic acid, formic acid salt] | 10 to 100
13 | Cc1ccc(C(c2ccc3c(nnn3C)c2C)C(C)(C)C(=O)O)cc1Cn1ccnc1CN1CCC(C)CC1 (stereo not shown) [Example 139, 3-(1,4-Dimethyl-1H-benzo[d][1,2,3]triazol-5-yl)-2,2-dimethyl-3-(4-methyl-3-((2-((4-methylpiperidin-1-yl)methyl)-1H-imidazol-1-yl)methyl)phenyl) propanoic acid] | 1000 to 10000
14 | CC[C@@H]1CN(Cc2cc(C(CC(=O)O)c3ccc4c(nnn4C)c3C)ccc2C)Cc2cc(C)ccc2O1 (stereo partly drawn) [Example 81, Ammonium 3-(1,4-dimethyl-1H-benzo[d][1,2,3]triazol-5-yl)-3-(3-(((R)-2-ethyl-7-methyl-2,3-dihydrobenzo[f][1,4]oxazepin-4(5H)-yl)methyl)-4-methylphenyl)propanate] | 10 to 100
15 | CC[C@@H]1CN(Cc2cc(C(Cc3nnn[nH]3)c3ccc4c(nnn4C)c3C)ccc2C)Cc2ccccc2O1 (stereo partly drawn) [Example 112, (2R)-4-(5-(1-(1,4-dimethyl-1H-benzo[d][1,2,3]triazol-5-yl)-2-(1H-tetrazol-5-yl)ethyl)-2-methylbenzyl)-2-ethyl-2,3,4,5-tetrahydrobenzo[f][1,4]oxazepine, Formic Acid Salt] | 100 to 1000
16 | CCn1cc(CCC(CC(=O)O)c2ccc(Cl)c(CN3Cc4cccnc4OC(C)(C)C3)c2)nn1 (stereo not shown) [Example 233, 3-(4-Chloro-3-((2,2-dimethyl-2,3-dihydropyrido[3,2-f][1,4]oxazepin-4(5H)-yl)methyl)phenyl)-5-(1-ethyl-1H-1,2,3-triazol-4-yl)pentanoic Acid] | 1000 to 10000
17 | Cc1ccc(C(c2ccc3c(nnn3C)c2C)C(C)(C)C(=O)O)cc1Cn1ccnc1CN1CCOCC1 (stereo not shown) [Example 142, 3-(1,4-Dimethyl-1H-benzo[d][1,2,3]triazol-5-yl)-2,2-dimethyl-3-(4-methyl-3-((2-(morpholinomethyl)-1H-imidazol-1-yl)methyl)phenyl) propanoic acid, trifluoroacetic acid salt] | 100 to 1000
18 | CCC1CN(Cc2cc([C@@H](c3ccc4c(nnn4C)c3C)C(C)C(=O)O)ccc2C)Cc2ccccc2O1 (stereo partly drawn) [Example 100, (3S)-3-(1,4-dimethyl-1H-benzo[d][1,2,3]triazol-5-yl)-3-(3-((2-ethyl-2,3-dihydrobenzo[f][1,4]oxazepin-4(5H)-yl)methyl)-4-methylphenyl)-2-methylpropanoic Acid] | 10 to 100
19 | COc1ccc(C2COCCN2Cc2cc(C(CC(=O)O)c3ccc4c(nnn4C)c3C)ccc2C)cc1 (stereo not shown) [Example 21, 3-(1,4-dimethyl-1H-benzo[d][1,2,3]triazol-5-yl)-3-(3-((3-(4-methoxyphenyl)morpholino)methyl)-4-methylphenyl)propanoic acid, formic acid salt] | 1000 to 10000
